Assays:
NMDA NR1/NR2B receptor = target: T1, NMDA NR1/NR2B receptor (Homo sapiens, UniProt Q05586+Q13224); test: In vitro NMDA NR1/NR2B cell assay (FLIPR, intracellular calcium induced by glycine/glutamate); type: cell-based; conditions: HEK293 cells expressing NMDA NR1/NR2B; 20 μM glycine, 1 μM glutamate; read-out: IC50 (in vitro NR2B affinity, FLIPR assay)
T1 construct: host or cells: HEK293, tetracycline-inducible expression
How it was run: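 HEK293 cells with tetracycline-induced NR1/NR2B, induced 48 h, loaded with Fluo-8 for 60 min at room temperature, stimulated with 20 μM glycine plus 1 μM glutamate (final) in HEPES buffer pH 7.4. Compound added 2 min later at 0.9% DMSO; fluorescence at ~5 min normalised to DMSO and 1 μM reference NAM controls, IC50 by 4-parameter fit.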

MDR1 (P-gp) = target: T2, MDR1 (P-gp) (Homo sapiens, UniProt P08183); test: MDCK assay P-gp (permeability across MDCK-MDR1 monolayers); type: in vitro ADME; conditions: for Papp A→B at 2 h: apical-to-basal, MDCK-MDR1 monolayers, pH 7.4; for efflux ratio at 2 h: pH 7.4, Papp (b-a) divided by Papp (a-b), MDCK-MDR1, read-out: efflux ratio PEBA/PEAB
T2 construct: expressed in transfected cells; host or cells: MDCKII (Madin-Darby canine kidney)
T2 sequence (P08183 whole entry): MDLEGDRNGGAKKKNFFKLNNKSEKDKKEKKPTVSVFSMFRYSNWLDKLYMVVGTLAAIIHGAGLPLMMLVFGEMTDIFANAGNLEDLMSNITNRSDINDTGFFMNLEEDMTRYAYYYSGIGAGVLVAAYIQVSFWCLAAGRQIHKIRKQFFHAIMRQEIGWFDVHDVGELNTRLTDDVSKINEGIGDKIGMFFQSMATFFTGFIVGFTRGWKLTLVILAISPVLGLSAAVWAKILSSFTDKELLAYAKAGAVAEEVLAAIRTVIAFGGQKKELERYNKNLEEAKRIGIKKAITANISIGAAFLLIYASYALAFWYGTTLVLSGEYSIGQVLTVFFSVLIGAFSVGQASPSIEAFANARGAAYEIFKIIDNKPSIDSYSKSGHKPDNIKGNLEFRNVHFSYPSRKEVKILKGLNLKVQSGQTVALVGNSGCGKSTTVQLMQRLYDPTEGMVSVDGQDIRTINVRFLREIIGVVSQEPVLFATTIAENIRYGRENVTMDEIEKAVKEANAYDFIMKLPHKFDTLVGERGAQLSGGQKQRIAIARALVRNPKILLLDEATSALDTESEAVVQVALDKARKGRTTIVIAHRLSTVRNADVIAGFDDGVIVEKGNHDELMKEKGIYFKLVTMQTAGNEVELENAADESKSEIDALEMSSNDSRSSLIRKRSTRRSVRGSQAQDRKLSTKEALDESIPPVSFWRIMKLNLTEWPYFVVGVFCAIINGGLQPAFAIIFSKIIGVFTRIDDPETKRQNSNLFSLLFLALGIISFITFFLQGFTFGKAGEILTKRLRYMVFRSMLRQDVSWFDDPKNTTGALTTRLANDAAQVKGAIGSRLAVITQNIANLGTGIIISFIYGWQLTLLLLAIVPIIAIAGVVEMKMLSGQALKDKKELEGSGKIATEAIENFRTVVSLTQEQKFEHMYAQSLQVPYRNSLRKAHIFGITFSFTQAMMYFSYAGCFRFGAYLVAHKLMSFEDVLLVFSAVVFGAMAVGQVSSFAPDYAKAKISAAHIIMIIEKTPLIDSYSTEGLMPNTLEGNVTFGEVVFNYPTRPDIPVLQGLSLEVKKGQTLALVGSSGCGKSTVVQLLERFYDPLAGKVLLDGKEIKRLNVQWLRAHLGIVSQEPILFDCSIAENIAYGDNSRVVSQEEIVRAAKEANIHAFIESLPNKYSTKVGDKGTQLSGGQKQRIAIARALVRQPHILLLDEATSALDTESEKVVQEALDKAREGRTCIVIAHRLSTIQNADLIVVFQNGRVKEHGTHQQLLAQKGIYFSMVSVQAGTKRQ
Description: The MDCK assays provide information on the potential of a compound to pass the blood brain barrier. Permeability measurements across polarized, confluent MDCK-MDR1 cell monolayers grown on permeable filter supports are used as an in vitro absorption model: apparent permeability coefficients (PE) of the compounds across the MDCK-MDR1 cell monolayers are measured (pH 7.4, 37° C.) in apical-to-basal (AB) and basal-to-apical (BA) transport direction. The AB permeability (PEAB) represents drug absorption from the blood into the brain and the BA permeability (PEBA) drug efflux from the brain back into the blood via both, passive permeability as well as active transport mechanisms mediated by efflux and uptake transporters that are expressed on the MDCK-MDR1 cells, predominantly by the overexpressed human MDR1. Identical or similar permeabilities in both transport directions indicate passive permeation (PEBA/PEAB≤1), vectorial permeability points to additional active transport mechanisms. Higher PEBA than PEAB (PEBA/PEAB>5) indicates the involvement of active efflux mediated by MDR1, which might compromise the goal to achieve sufficient brain exposure. Therefore, this assay provides valuable support for selection of compounds applicable for further in vivo testing. High permeability not limited by efflux at the blood brain barrier is a favorable characteristic for compounds that are to be used for drugs acting primarily in the CNS.
Apparent permeability coefficients (Papp) of the compounds across the MDCK-MDR1 monolayers (MDCKII cells transfected with human MDR1 cDNA expression plasmid) are measured in apical-to-basal (AB) and basal-to-apical (BA) direction. MDCK-MDR1 cells (6×10^5 cells/cm^2) are seeded on filter inserts (Corning, Transwell, polycarbonate, 0.4 μm pore size) and cultured for 9 to 10 days. Compounds dissolved in DMSO stock solution (1-20 mM) are diluted with HTP-4 aqueous buffer (128.13 mM NaCl, 5.36 mM KCl, 1 mM MgSO4, 1.8 mM CaCl2, 4.17 mM NaHCO3, 1.19 mM Na2HPO4, 0.41 mM NaH2PO4, 15 mM HEPES, 20 mM glucose, pH 7.4) supplemented with 0.25% BSA to prepare the transport solutions (final concentration: 1 or 10 μM, final DMSO<=0.5%). The transport solution is applied to the apical or basolateral donor side for measuring A-B or B-A permeability, respectively. The receiver side contains HTP-4 buffer supplemented with 0.25% BSA. Samples are collected at the start and end of experiment from the donor and at various time intervals for up to 2 hours also from the receiver side for concentration measurement by HPLC-MS/MS (RapidFire High-throughput MS System (Agilent) coupled to QTrap 6500 (AB Sciex) or TSQ Vantage (Thermo Scientific)). Sampled receiver volumes are replaced with fresh receiver solution. Efflux ratio is calculated dividing the Papp (b-a) values by the Papp (a-b) values.

T1 sequence (Q13224 27-1484, other chains not shown): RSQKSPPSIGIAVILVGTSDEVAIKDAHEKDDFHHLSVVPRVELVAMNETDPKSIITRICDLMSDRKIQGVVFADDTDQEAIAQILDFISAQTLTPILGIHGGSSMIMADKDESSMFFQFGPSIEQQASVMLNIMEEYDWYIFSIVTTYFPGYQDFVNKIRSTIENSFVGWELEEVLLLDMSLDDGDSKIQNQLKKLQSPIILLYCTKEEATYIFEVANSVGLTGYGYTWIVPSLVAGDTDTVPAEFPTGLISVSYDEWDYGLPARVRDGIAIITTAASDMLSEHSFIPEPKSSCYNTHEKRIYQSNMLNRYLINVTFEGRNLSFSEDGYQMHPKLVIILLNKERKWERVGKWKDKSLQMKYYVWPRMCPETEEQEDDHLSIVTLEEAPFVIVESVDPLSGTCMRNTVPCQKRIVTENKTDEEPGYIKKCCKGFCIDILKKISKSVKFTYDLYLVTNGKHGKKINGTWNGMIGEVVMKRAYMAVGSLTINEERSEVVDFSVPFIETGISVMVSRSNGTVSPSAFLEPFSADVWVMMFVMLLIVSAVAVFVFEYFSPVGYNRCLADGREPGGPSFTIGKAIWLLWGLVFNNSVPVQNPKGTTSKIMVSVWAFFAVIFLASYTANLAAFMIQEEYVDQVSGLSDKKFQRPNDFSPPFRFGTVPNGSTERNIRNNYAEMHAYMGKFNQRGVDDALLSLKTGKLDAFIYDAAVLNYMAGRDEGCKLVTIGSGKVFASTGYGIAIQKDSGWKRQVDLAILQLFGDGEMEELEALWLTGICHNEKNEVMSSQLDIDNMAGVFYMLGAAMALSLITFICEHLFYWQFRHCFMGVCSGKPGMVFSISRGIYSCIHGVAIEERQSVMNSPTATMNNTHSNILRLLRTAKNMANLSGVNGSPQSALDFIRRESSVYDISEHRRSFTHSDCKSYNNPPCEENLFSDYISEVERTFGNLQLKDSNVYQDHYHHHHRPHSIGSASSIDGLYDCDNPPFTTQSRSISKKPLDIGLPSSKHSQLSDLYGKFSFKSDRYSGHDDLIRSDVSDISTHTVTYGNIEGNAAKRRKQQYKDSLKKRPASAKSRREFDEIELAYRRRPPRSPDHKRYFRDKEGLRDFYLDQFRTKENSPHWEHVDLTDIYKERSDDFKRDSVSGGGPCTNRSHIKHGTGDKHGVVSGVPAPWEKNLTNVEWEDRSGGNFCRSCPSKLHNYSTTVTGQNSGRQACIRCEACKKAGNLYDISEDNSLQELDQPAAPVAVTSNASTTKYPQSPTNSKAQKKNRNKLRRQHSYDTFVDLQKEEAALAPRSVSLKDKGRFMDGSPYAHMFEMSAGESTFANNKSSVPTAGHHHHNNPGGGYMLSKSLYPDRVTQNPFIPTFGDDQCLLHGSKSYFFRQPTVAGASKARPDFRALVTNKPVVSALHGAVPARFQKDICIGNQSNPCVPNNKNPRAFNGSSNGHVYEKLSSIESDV

IC50 (NMDA NR1/NR2B receptor) [nM] | Papp A→B at 2 h (MDR1 (P-gp)) [×10⁻⁶ cm/s] | efflux ratio at 2 h (MDR1 (P-gp)) | SMILES
454 | 86 | 0.5 | CNC(=O)[C@@H]1CN(Cc2ccc(Oc3ccc(F)cc3)cn2)CCO1 [Example 30]
199 | 75 | 0.7 | CNC(=O)[C@@H]1CN(Cc2ccc(Oc3ccccc3F)nc2)CCO1 [Example 19]
188 | 67 | 0.6 | CNC(=O)[C@@H]1CN(Cc2ccc(Oc3ccccc3Cl)nc2)CCO1 [Example 17]
194 | 58 | 0.8 | CNC(=O)[C@@H]1CN(Cc2ccc(Oc3ccc(C)cc3)nc2)CCO1 [Example 29]

— patent publication US11155539B2, “4-pyridinylmethyl-morpholine derivatives and the use thereof as medicament” (Boehringer Ingelheim International GmbH, priority 2018, dated 2021)
